“Also recorded” adds a separate entry of the source. Where two headings read alike, the source gives them in different places.
How the values were obtained:
[1] = tested on: human monocyte-derived DCs; assay: Cytokine production by DCs (ELISA); type: cell-based
[2] = tested on: naïve, allogeneic CD4+ CD45RA+ CD45RO− T cells; assay: DC-T cell cultures: T-cell proliferation and Th1/Th2 cytokines; type: cell-based, human; settings: for IFNγ in DC-T cell culture: DCs stimulated 48 h, then 5 days with naive CD4+ T cells
[3] = tested on: ERK1/2; assay: MAP-kinase signaling in DCs: ERK1/2 phosphorylation; type: cell-based, human; settings: 0.25, 1 and 4 h stimulation
[4] = tested on: human monocyte-derived DCs; assay: DC phenotype/maturation by flow cytometry (CD80, CD86, CD83); type: cell-based; settings: immature DCs cultured 48 h with stimulus
Experimental: Isolation and culture of human monocyte-derived DCs: CD14^+ monocytes were enriched from peripheral blood mononuclear cells (PBMCs), using an enrichment step, and cultured in six well plates (1×10^6 cells/well) for six days with recombinant Human GM-CSF at 100 ng/ml (PeproTech, NJ) and recombinant Human IL-4 at 20 ng/ml (PeproTech, NJ). At day six, the cultures consisted uniformly of CD1a^+CD14^−, HLA-DR^+ CD11c^+ cells, which were negative for CD83, the human DC maturation marker, and expressed intermediate levels of such costimulatory molecules as CD86 (Rissoan et al., Science 283:1183-1186, 1999). On day six, the immature DCs were pulsed with E. coli LPS ([…]), flagellin ([…]), Pam3cys ([…]), or SEA ([…]) for 48 hours.
DC phenotype: The phenotype of DCs was determined by flow cytometry using a Facscalibur (BD Pharmingen, CA). Briefly, gated CD1a^+CD14^−, CD11c^+ HLA-DR^+ DCs were analyzed for the expression of CD80, CD86, CD83 and CD40. All antibodies, including the PE-labeled isotype controls were purchased from BD Pharmingen (La Jolla, Calif.).
Isolation and culture of human monocyte-derived DCs: CD14^+ monocytes were enriched from peripheral blood mononuclear cells, and cultured for 6 days with recombinant human GM-CSF at 100 ng/ml (PeproTech, NJ) plus recombinant human IL-4, at 20 ng/ml (PeproTech). At day 6, the cultures consisted uniformly of CD1a^+ CD14^−, HLA-DR^+ CD11c^+ cells, which were negative for CD83. These immature DCs were pulsed with Ec.LPS (1 μg/ml), flagellin (0.5 μg/ml), Pam3cys (20 μg/ml), or SEA (100 μg/ml) for 48 h.
DC phenotype: This was determined by flow cytometry using a Facscalibur (BD Pharmingen, CA). Briefly, gated CD1a^+CD14^−, C11c+ HLA-DR^+DCs were analyzed for the expression of CD80, CD86, CD83 and CD40 (BD Pharmingen, La Jolla, Calif.).

[5] = tested on: OVA-specific CD8+ T cells; assay: Antigen-specific CD8+ T cell responses in vivo (OT-1 adoptive transfer); parameters: species or system mice; settings: for clonal expansion of OVA-specific CD8+ T cells: i.p. with OVA257-264 50 μg, E. coli LPS 25 μg or Pam-3-cys 50 μg, day 4
[6] = tested on: splenic CD11c+ CD11b+ and CD11c+ CD11b− DC subsets; assay: Activation of splenic DC subsets in vivo
[7] = tested on: JNK1/2; assay: MAP-kinase signaling in DCs: JNK1/2 phosphorylation (western blot); type: cell-based, human
[8] = tested on: OVA-specific CD4+ T cells; assay: Antigen-specific CD4+ T cell responses in vivo (OT-2 adoptive transfer); parameters: species or system mice
[9] = tested on: p38 MAP kinase; assay: MAP-kinase signaling in DCs: p38 phosphorylation; type: cell-based, human
[10] = tested on: c-Fos; assay: Flow cytometric evaluation of c-Fos expression in DCs; type: cell-based, human; settings: for phosphorylated c-Fos expression in DCs: flow cytometry
[11] = tested on: ERK1/2; assay: IL-12(p70) production by stimulated DCs with ERK1/2 inhibitor; type: cell-based, human; settings: inhibitor 1 h before stimulus
[12] = very high doses, which induced high levels of CD83
[13] = mice injected with OVA257-264 + stimulus
[14] = mice injected with OVA323-339 + stimulus

In the case of “S-[2,3-bis(palmitoyloxy)-(2-RS)-propyl]-N-palmitoyl-R-Cys-S-Ser-Lys4-OH [Pam3cys]”, the “IL-12 induced in DCs at 10 hrs” value ([1]; 10 hrs, no inhibitor) was “did not induce any IL-12”, the “IL-12 induced in DCs at 24 hrs” value ([1]; 24 hrs, no inhibitor) was 20 to 100 pg/mL and the “IL-10 secreted by DCs” value ([1]; 48 h with stimulus, ELISA) was “induced”. The “TNF-α secreted by DCs” value ([1]; 48 h with stimulus, ELISA) was “much weaker levels”, the “IL-12(p70) secreted by DCs” value ([1]; 48 h with stimulus, doses giving equivalent IL-6, ELISA) was “little or no IL-12(p70)” and the “IL-12(p70) secreted by DCs at very high doses of stimulus” value [1, 12] was “did not induce IL-12(p70)”. The “IL-5 in DC-T cell culture” value ([2]; Example 1, FIG. 2B) was “high levels”, the “IL-13 in DC-T cell culture” value ([2]; Example 1, FIG. 2B) was 1458 pg/mL and the “IFNγ in DC-T cell culture” value ([2]; Example 1, FIG. 2B) was “high levels”. The “IL-5 in DC-T cell culture” value ([2]; Example 2, FIG. 8b) was 600 pg/mL, the “IL-13 in DC-T cell culture” value ([2]; Example 2, FIG. 8b) was 600 pg/mL and the “IFNγ in DC-T cell culture” value ([2]; Example 2, FIG. 8b) was “approximately 2000 pg/ml”. The “Th1 responses induced by DCs stimulated at very high doses” value [2, 12] was “did not induce Th1 responses”, the “ERK1/2 phosphorylation in DCs” value [3] was “much higher magnitude and duration of phosphorylation (which was sustained even at 4 hours); also recorded: much higher magnitude and duration of phosphorylation, (which was sustained even at 4 h)” and the “CD80 expression on DCs” value [4] was “also weaker”. For the same molecule, the “CD86 expression on DCs” value [4] was “much lower levels of CD86”, the “DC maturation (maturation marker CD83)” value [4] was “weaker than that induced by E. coli LPS or flagellin; also recorded: weaker than that induced by Ec.LPS or flagellin” and the “bias of the CD8+ Tc response in vivo” value ([5]; OT-1) was “shift the balance towards the Tc2 pathway”. The “ratio IFNγ: IL-4” value ([5]; OT-1, FIG. 13D) was 28, the “ratio IFNγ: IL-5” value ([5]; OT-1, FIG. 13D) was 21 and the “ratio IFNγ: IL-13” value ([5]; OT-1, FIG. 13D) was 4. For the same molecule, the “clonal expansion of OVA-specific CD8+ T cells” value [5] was “induced clonal expansion”, the “clonal expansion of OVA-specific CD8+ T cells” value ([5]; listed as Pam-cys) was “enhanced the clonal expansion” and the “IFNγ in restimulated spleen cell culture” value [5, 13] was “lower levels of IFNγ”. For the same molecule, the “IL-4, IL-5 and IL-13 in restimulated spleen cell culture” value [5, 13] was “relatively higher levels of IL-4, IL-5 and IL-13”, the “in vitro proliferative capacity of OVA-specific CD8+ T cells” value ([5]; spleen cells restimulated with OVA257-264, versus OVA257-264 alone) was “greatly enhanced responses” and the “induction of CD86 and I-Ab on splenic DC subsets” value ([6]; TLR-2 deficient (TLR2−/−) mice) was “severely impaired; also recorded: severely reduced”. For the same molecule, the “CD86 and MHC class II (I-Ab) expression on splenic DC subsets” value ([6]; wild type mice, E. coli LPS 25 μg, Pam-3-cys 50 μg, 6 hours) was “equivalent up-regulation of CD86 and MHC class II; also recorded: upregulated CD86 and I-Ab expression”, the “JNK1 phosphorylation in DCs” value ([7]; Example 2, FIG. 9c, western blot) was “very weak” and the “bias of the CD4+ Th response in vivo” value ([8]; OT-2) was “preferential bias towards the Th2 pathway”. For the same molecule, the “ratio IFNγ: IL-4” value ([8]; OT-2, FIG. 12D) was 40, the “ratio IFNγ: IL-5” value ([8]; OT-2, FIG. 12D) was 18 and the “ratio IFNγ: IL-13” value ([8]; OT-2, FIG. 12D) was 1.2. For the same molecule, the “IL-4 and IL-5 in restimulated spleen cell culture” value ([8]; OT-2, relative to OVA323-339+E. coli LPS, p<0.01) was “relatively higher levels of IL-4 and IL-5”, the “clonal expansion of OVA-specific CD4+ Thy-1.2+ T cells in spleen” value ([8]; i.p. with OVA323-339 50 μg, E. coli LPS 25 μg or Pam-3-cys 50 μg, day 4) was “significantly enhanced the clonal expansion; also recorded: induced clonal expansion” and the “IFNγ in restimulated spleen cell culture” value [8, 14] was “much lower levels of IFNγ”. The “IL-5 in restimulated spleen cell culture” value [8, 14] was roughly 70 pg/mL, the “IL-4 in restimulated spleen cell culture” value ([8]; mice injected with OVA323-339 + stimulus, ELISA sensitivity 8 pg/ml) was roughly 30 pg/mL and the “in vitro proliferative capacity of OVA-specific CD4+ T cells” value ([8]; spleen cells restimulated with OVA, versus OVA323-339 alone) was “greatly enhanced responses”. For the same molecule, the “phosphorylation of p38 MAP kinase in DCs” value ([9]; 0.25, 1 and 4 h stimulation, phosphorylated to total ratio, ELISA) was “rapid burst of p38 phosphorylation at 15 minutes, which rapidly declined to near baseline levels by 1 hour”, the “phosphorylation of p38 MAP kinase in DCs” value ([9]; 0.25, 1 and 4 h stimulation, phosphorylated to total ratio, ELISA, listed as Pam-3-cys) was “enhanced phosphorylation of p38 MAP kinase” and the “c-Fos expression in DCs at 4 hours” value ([10]; 4 h of stimulation) was “maintained, even at 4 hours; also recorded: maintained even at 4 hrs”. The “phosphorylated c-Fos expression in DCs” value [10] was “expressed at significant levels” and the “total c-Fos expression (mean fluorescence intensity, fraction of cells) in DCs” value ([10]; peak, 2 hrs of stimulation, versus E. coli LPS or flagellin) was “much greater”.
For `N#CC(=C(/N)Sc1ccccc1N)/C(C#N)=C(\N)Sc1ccccc1N` [U0126], the “IL-12(p70) production induced by Pam3cys when ERK1/2 is blocked” value [11] was “significantly enhances IL-12(p70) production” and the “IL-12(p70) production induced by SEA when ERK1/2 is blocked” value [11] was “did not result in consistent increases in IL-12(p70)”.
flagellin was tested, and the “IL-10 secreted by DCs” value [1] was “induced”, the “IL-12(p70) secreted by DCs” value [1] was “approximately 1000 pg/ml” and the “TNF-α secreted by DCs” value [1] was “strongly induced”. For the same molecule, the “type of Th response induced by stimulated DCs” value [2] was “typical Th1 profile”, the “JNK1 phosphorylation in DCs” value [7] was “high levels” and the “JNK 2 phosphorylation in DCs” value [7] was “higher levels of JNK 2”. For the same molecule, the “phosphorylation of JNK1 and 2 in DCs” value [7] was “higher levels of JNK1 and 2”, the “phosphorylation of p38 MAP kinase in DCs” value [9] was “enhanced phosphorylation of p38 MAP kinase, which peaked at 15 minutes, and was sustained at levels well above baseline, even at 4 hours” and the “ratio of p38:ERK phosphorylation in DCs” value [9] was “much higher ratios of p38:ERK1/2”. For the same molecule, the “phosphorylated c-Fos expression in DCs” value [10] was “not expressed”.
